Experimental data published in the NIST ThermoML archive (doi:10.1021/acs.jced.6b00542).

Assay: xn = mol fraction of the nth substance listed
Settings: Liquid; for mass density / viscosity: 102 kPa; for mass density: Vibrating tube method; for speed of sound: 100 kPa, Frequency=3 MHz, Sing-around technique in a fixed-path interferometer; for viscosity: Concentric cylinders viscometry

CCCCc1ccccc1 [butylbenzene] + CCCCCCCCCC
Settings | mass density [kg/m3] | speed of sound [m/s] | viscosity [mPa·s]
323.15 K, x1 = 0.1055 | 717.94 | – | –
323.15 K, x1 = 0.2096 | 729.23 | – | –
323.15 K, x1 = 0.3124 | 740.92 | – | –
323.15 K, x1 = 0.4141 | 753.07 | – | –
323.15 K, x1 = 0.5145 | 765.64 | – | –
323.15 K, x1 = 0.614 | 778.75 | – | –
323.15 K, x1 = 0.712 | 792.31 | – | –
323.15 K, x1 = 0.8094 | 806.52 | – | –
323.15 K, x1 = 0.9051 | 821.03 | – | –
323.15 K, x1 = 1 | 836.34 | – | –
333.15 K, x1 = 0.1055 | 710.17 | 1105.6 | 0.547
333.15 K, x1 = 0.2096 | 721.43 | 1113.2 | 0.549
333.15 K, x1 = 0.3124 | 733.08 | 1121.2 | 0.555
333.15 K, x1 = 0.4141 | 745.19 | 1129.9 | 0.56
333.15 K, x1 = 0.5145 | 757.73 | 1139.3 | 0.568
333.15 K, x1 = 0.614 | 770.8 | 1149.5 | 0.577
333.15 K, x1 = 0.712 | 784.32 | 1160.7 | 0.589
333.15 K, x1 = 0.8094 | 798.48 | 1173 | 0.602
333.15 K, x1 = 0.9051 | 812.95 | 1186.3 | 0.618
333.15 K, x1 = 1 | 828.21 | 1201.4 | 0.636
343.15 K, x1 = 0.1055 | 702.3 | – | 0.488
343.15 K, x1 = 0.2096 | 713.5 | – | 0.492
343.15 K, x1 = 0.3124 | 725.1 | – | 0.496
343.15 K, x1 = 0.4141 | 737.2 | – | 0.502
343.15 K, x1 = 0.5145 | 749.7 | – | 0.509
343.15 K, x1 = 0.614 | 762.7 | – | 0.518
343.15 K, x1 = 0.712 | 776.1 | – | 0.528
343.15 K, x1 = 0.8094 | 790.3 | – | 0.54
343.15 K, x1 = 0.9051 | 804.7 | – | 0.554
343.15 K, x1 = 1 | 819.9 | – | 0.571
353.15 K, x1 = 0.1055 | 694.4 | – | 0.439
353.15 K, x1 = 0.2096 | 705.6 | – | 0.443
353.15 K, x1 = 0.3124 | 717.1 | – | 0.447
353.15 K, x1 = 0.4141 | 729.2 | – | 0.453
353.15 K, x1 = 0.5145 | 741.7 | – | 0.46
353.15 K, x1 = 0.614 | 754.6 | – | 0.467
353.15 K, x1 = 0.712 | 768 | – | 0.477
353.15 K, x1 = 0.8094 | 782.1 | – | 0.488
353.15 K, x1 = 0.9051 | 796.5 | – | 0.5
353.15 K, x1 = 1 | 811.7 | – | 0.516
363.15 K, x1 = 0.1055 | 686.4 | – | 0.399
363.15 K, x1 = 0.2096 | 697.5 | – | 0.402
363.15 K, x1 = 0.3124 | 709.1 | – | 0.407
363.15 K, x1 = 0.4141 | 721.1 | – | 0.412
363.15 K, x1 = 0.5145 | 733.5 | – | 0.419
363.15 K, x1 = 0.614 | 746.4 | – | 0.426
363.15 K, x1 = 0.712 | 759.9 | – | 0.434
363.15 K, x1 = 0.8094 | 773.9 | – | 0.444
363.15 K, x1 = 0.9051 | 788.3 | – | 0.456
363.15 K, x1 = 1 | 803.4 | – | 0.469
373.15 K, x1 = 0.1055 | 678.2 | – | 0.365
373.15 K, x1 = 0.2096 | 689.3 | – | 0.369
373.15 K, x1 = 0.3124 | 700.9 | – | 0.373
373.15 K, x1 = 0.4141 | 712.8 | – | 0.378
373.15 K, x1 = 0.5145 | 725.3 | – | 0.384
373.15 K, x1 = 0.614 | 738.2 | – | 0.391
373.15 K, x1 = 0.712 | 751.6 | – | 0.399
373.15 K, x1 = 0.8094 | 765.6 | – | 0.408
373.15 K, x1 = 0.9051 | 779.9 | – | 0.419
373.15 K, x1 = 1 | 795 | – | 0.43
